Our source for the Activity and inhibition values is ChEMBL document CHEMBL3632570, “Structure-Guided Design of Novel l-Cysteine Derivatives as Potent KSP Inhibitors” (ACS Med Chem Lett, 2015).

One series relates to Mus musculus. As to the kind of experiment: Toxicity in athymic nude BALB/cAJcL mouse xenografted with HCT116 cells assessed as mortality at 25 mg/kg, iv administered on days 1,3,5,8,10 and 12. It counts as organism-based, HCT-116. The following applies: in vivo.
Series [1] has as its target T1, Kinesin-like protein KIFC3 (Homo sapiens) (UniProt Q9BVG8).
T1 sequence (whole entry): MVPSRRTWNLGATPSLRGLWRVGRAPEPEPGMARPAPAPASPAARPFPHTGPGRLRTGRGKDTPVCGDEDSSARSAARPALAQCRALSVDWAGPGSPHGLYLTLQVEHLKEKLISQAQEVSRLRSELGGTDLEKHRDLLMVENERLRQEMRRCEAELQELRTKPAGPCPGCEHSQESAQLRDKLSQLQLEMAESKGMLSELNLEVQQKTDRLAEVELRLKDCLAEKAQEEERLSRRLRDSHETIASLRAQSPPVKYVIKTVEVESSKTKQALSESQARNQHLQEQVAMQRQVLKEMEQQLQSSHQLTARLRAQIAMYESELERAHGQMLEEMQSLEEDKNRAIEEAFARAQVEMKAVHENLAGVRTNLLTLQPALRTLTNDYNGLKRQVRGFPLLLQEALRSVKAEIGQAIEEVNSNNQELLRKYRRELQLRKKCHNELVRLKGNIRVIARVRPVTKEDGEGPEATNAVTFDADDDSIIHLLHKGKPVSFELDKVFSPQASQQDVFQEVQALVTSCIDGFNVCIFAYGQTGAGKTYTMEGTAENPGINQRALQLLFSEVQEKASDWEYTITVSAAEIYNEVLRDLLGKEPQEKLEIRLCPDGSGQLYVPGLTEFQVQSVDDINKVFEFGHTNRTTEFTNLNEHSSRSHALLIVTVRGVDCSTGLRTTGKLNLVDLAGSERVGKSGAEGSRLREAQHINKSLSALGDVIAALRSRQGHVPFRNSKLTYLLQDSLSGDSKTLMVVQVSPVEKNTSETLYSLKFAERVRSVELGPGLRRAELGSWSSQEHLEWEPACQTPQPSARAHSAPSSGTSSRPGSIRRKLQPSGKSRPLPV
As to the kind of experiment: Inhibition of microtubule-stimulated KIFC3 motor domain (303 to 638) (unknown origin) ATPase activity at 6.3 uM.

Series [2] addresses T2, Kinesin-like protein KIF23 (Homo sapiens) (UniProt Q02241).
T2 sequence (whole entry): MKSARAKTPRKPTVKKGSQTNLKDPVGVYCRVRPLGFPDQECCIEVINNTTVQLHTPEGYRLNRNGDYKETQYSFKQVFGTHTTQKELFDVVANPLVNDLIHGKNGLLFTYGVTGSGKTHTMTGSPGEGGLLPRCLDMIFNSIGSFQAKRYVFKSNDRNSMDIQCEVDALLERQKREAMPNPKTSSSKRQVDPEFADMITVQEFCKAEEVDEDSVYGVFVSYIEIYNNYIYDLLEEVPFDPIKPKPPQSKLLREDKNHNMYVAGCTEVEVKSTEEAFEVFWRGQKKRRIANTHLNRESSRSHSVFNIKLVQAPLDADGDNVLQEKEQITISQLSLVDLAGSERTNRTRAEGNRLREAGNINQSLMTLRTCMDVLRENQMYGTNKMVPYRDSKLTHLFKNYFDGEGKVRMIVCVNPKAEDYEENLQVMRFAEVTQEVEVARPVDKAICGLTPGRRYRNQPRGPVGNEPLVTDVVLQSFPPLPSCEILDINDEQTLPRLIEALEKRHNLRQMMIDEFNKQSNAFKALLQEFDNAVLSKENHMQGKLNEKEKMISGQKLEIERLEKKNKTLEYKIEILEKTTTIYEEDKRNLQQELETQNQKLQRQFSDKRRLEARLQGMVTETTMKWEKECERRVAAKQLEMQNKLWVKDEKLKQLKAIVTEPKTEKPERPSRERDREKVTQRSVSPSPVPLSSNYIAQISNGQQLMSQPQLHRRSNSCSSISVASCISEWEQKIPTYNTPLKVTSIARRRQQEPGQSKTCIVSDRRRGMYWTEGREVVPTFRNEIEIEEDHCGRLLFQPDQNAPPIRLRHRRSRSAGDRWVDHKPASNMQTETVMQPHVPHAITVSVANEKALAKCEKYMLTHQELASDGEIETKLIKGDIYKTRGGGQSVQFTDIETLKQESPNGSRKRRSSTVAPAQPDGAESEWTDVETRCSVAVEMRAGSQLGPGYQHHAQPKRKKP
As to the kind of experiment: Inhibition of microtubule-stimulated MKLP1 motor domain (1 to 446) (unknown origin) ATPase activity at 6.3 uM.

Calls of active or inactive are those of the source. The rule behind the calls is not given here.

As for `COc1ccc(C2(SC[C@H](N)C(=O)O)c3ccccc3CCc3ccccc32)cc1`, the Activity result in the series on Mus musculus is on record as “Non-toxic”. The inhibition result in series [1] and in series [2] was “inactive” throughout.
Regarding `N[C@@H](CSC1(c2ccc(C(F)(F)F)cc2)c2ccccc2CCc2ccccc21)C(=O)O`, the Activity result with Mus musculus was “Non-toxic”. In addition, the inhibition result in series [1] and in series [2] was “inactive” throughout.
